# Where a SMILES comes first, the peptide text is derived from it.
# Assays:
# [1] = tested on: embryologic day 10 dorsal root ganglia neurons; assay: NGF-independent neurite outgrowth in response to CNTF (nonspecific toxicity check); format: cell-based, chick; conditions: C5 up to 2.6p moles/ml (Figure 3)
# Description: Potential nonspecific toxicity of peptide C5 (KGKE) was investigated with embryologic day 10 dorsal root ganglia neurons which also extend neurites in the presence of ciliary neurotrophic factor (CNTF). The effect of peptide C5 on NGF-independent neurite outgrowth was assessed.
# [2] = Resistance to proteolysis during cell culture (HPLC recovery); format: in vitro ADME; conditions: after 24 hr in culture; 2.0 µmole/ml peptide, 100 pg/ml NGF and cells
# Description: The resistance of peptide C5 to proteolytic cleavage during cell culture was assessed. Quadruplicate wells were prepared each containing 2.Oµ mole/ml of peptide in culture medium, 100 pg/ml NGF and cells as described above. After 24 hr in culture, 320 ul (4 wells x 80 ul) of culture medium were collected. Fresh culture medium containing 2.0 µmole/ml of peptide was also prepared. Both samples of peptide-containing medium were filtered through a Centricon membrane (Amicon, Bedford) with a molecular weight cutoff of 10,000. 250 µl of filtrate was loaded onto a C18 uBondapak analytic HPLC column and run under the same conditions described above for peptide purification. The quantity of peptides in fresh compared to post-culture medium was determined by integration of their absorbance peaks. After 24 hr in culture, more than 80-85% of the initial quantity of peptide C5 was recovered.
smiles,measurement,setting,value
"NCCCC[C@H](NC(=O)CNC(=O)[C@@H](N)CCCCN)C(=O)N[C@@H](CCC(=O)O)C(N)=O [C5, KGKE] (H-KGKE-NH2)",effect on number of neurons bearing neurites in response to CNTF,[1],no detectable effect
same,initial quantity of peptide recovered,[2],80-85%

# From patent publication EP0335637A2, “Nerve growth factor peptides” (THE REGENTS OF THE UNIVERSITY OF CALIFORNIA, priority 1988, dated 1989)
